For experiment [1], the system named is extracellular HBeAg level (surrogate marker for cccDNA) in HepDES19 cells. As to the kind of experiment: HepDES19 primary screen assay. In kind it is cell-based, HBV. Conditions: Hepatitis B virus, 120 h, 5 days compound incubation, HBeAg ELISA. The procedure, abridged: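 HepDES19 cells, Tet-withdrawn 8 days to induce pgRNA, then seeded 24 h before dosing with half-log compound dilutions (1% DMSO final) for 5 days at 37 °C. Extracellular HBeAg by ELISA, viability by CCK-8; IC50 from 4-parameter logistic fit.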
Background: ELISA stands for enzyme-linked immunosorbent assay.

The test system of experiment [2] is extracellular HBV DNA in HBV-infected PHH. In words: Cryopreserved primary human hepatocytes (PHH) assay, HBV DNA. In kind it is cell-based. Conditions: Hepatitis B virus, Hepatocyte, 216 h; cryopreserved PHH infected with HBV, 9 days post-compound treatment, quantitative PCR. Here is the method: (§1) Cryopreserved PHH (BioreclamationIVT, Lot YJM) was thawed at 37° C. and gently transferred into pre-warmed InVitroGRO HT medium (BioreclamationIVT, Cat. S03317). The mixture was centrifuged at 70 relative centrifugal force (RCF) for 3 minutes at RT, and the supernatant was discarded. Pre-warmed InVitroGRO CP medium (BioreclamationIVT, Cat # S03316) was added to the cell pellet to gently re-suspend cells. The cells were seeded at the density of 5.8×10^4 cells per well to collagen I coated 96-well plate (Gibco, Cat. A1142803) with the InVitroGRO CP medium. All plates were incubated at 37° C. with 5% CO2 and 85% humidity.
(§2) At 20 hours after plating, the medium was changed to PHH culture medium (Dulbecco's Modified Eagle Medium (DMEM)/F12 (1:1) (Gibco, Cat. 11320-033), 10% fetal bovine serum (Gibco Cat. 10099141), 100 U/mL penicillin, 100 μg/mL streptomycin (Gibco, Cat. 151401-122), 5 ng/mL human epidermal growth factor (Invitrogen Cat. PHG0311L), 20 ng/mL dexamethasone (Sigma, Cat. D4902) and 250 ng/mL human recombinant insulin (Gibco, Cat. 12585-014)). And the cells were incubated at 37° C. with 5% CO2 and 85% humidity for 4 hours. The medium was then changed to pre-warmed PHH culture medium containing 4% polyethylene glycol (PEG) MW8000 (Sigma, Cat. P1458-50ML) and 1% DMSO (Sigma, Cat. D2650). 5.8×10^6 genomic equivalents of HBV were added into the medium.
(§3) At 24 hours post-infection, the cells were gently washed with PBS and refreshed with PHH culture medium supplemented with 1% DMSO, and 0.25 mg/mL Matrix gel (Corning, Cat. 356237) at 200 μL per well. All plates were immediately placed in at 37° C. CO2 incubator.
(§4) 24 hours later, serial dilutions of compounds made with DMSO were further diluted with the same culture medium (PHH culture medium supplemented with 1% DMSO and 0.25 mg/mL Matrix gel as described above) before they were added to the cells to reach desired final compound concentrations and 1% DMSO concentration. The medium containing the compounds were refreshed every three days.
(§5) At 9 days post-compound treatment, extracellular HBsAg level were measured with Chemiluminescence Immuno Assay (CLIA) kit (Autobio, HBsAg Quantitative CLIA). Extracellular HBV DNA was extracted by MagNA Pure 96 system (Roche) and then determined by quantitative PCR with the following primers and probe: HBV-Forward Primer (SEQ ID NO:2): […] (5′ to 3′); HBV-Reverse Primer (SEQ ID NO:3): […](5′ to 3′); HBV-Probe: 5′+tetramethylrhodamine+SEQ ID NO:4+black hole quencher 2-3′, wherein SEQ ID NO:4 is […].
(§6) HBsAg IC50 and HBV DNA IC50 values were derived from the dose-response curve using 4 parameter logistic curve fit method.

Experiment [3] deals with extracellular HBsAg level in HBV-infected PHH. As to the kind of experiment: Cryopreserved primary human hepatocytes (PHH) assay, HBsAg. In kind it is cell-based. Particulars: Hepatitis B virus, Hepatocyte, 216 h, read-out: HBsAg IC50. Here is the method:
as §1, §2, §3, §4, §5, §6

Among the data in patent publication US10611748B2, “Xanthone derivatives for the treatment of hepatitis B virus disease” (Hoffmann-La Roche Inc., priority 2017, dated 2020) are IC50 values, retold here.

The term IC50 denotes the concentration at which inhibition is half-maximal.

Regarding `O=C(O)C1CCN(c2ccc3c(=O)c4cccc(Cl)c4oc3c2)C1` (centres unmarked) [Example 2, 1-(5-chloro-9-oxo-xanthen-3-yl)pyrrolidine-3-carboxylic acid], the figures for the IC50 in experiment [1], in experiment [2] and in experiment [3] were 2180 nM, 2300 nM and 1330 nM, respectively.
As to `O=C(O)[C@@H]1CCN(c2ccc3c(=O)c4cccc(Cl)c4oc3c2)C1` [Example 3, (3R)-1-(5-chloro-9-oxo-xanthen-3-yl)pyrrolidine-3-carboxylic acid], the IC50 in experiment [1] stood at 1240 nM; in experiment [2] it was 1610 nM; in experiment [3], 1640 nM.
Turning to `O=C(O)[C@H]1CCN(c2ccc3c(=O)c4cccc(Cl)c4oc3c2)C1` [Example 4, (3S)-1-(5-chloro-9-oxo-xanthen-3-yl)pyrrolidine-3-carboxylic acid], the IC50 in experiment [1] was 2180 nM; in experiment [2] it was 1930 nM; in experiment [3], 1580 nM.
The like results for `O=C(O)C1CCN(c2ccc3c(=O)c4cccc(F)c4oc3c2)C1` (centres unmarked) [Example 5, 1-(5-fluoro-9-oxo-xanthen-3-yl)pyrrolidine-3-carboxylic acid] were, in that order, 3330 nM, 9620 nM and 17800 nM.
For `O=C(O)C1CCN(c2ccc3c(=O)c4c(Cl)ccc(Cl)c4oc3c2)C1` (centres unmarked) [Example 26, 1-(5,8-dichloro-9-oxo-xanthen-3-yl)pyrrolidine-3-carboxylic Acid], the figures for the IC50 in experiment [1] and in experiment [3] were 2360 nM and 1170 nM, respectively.
